# Test results taken from patent publication US7202269B2, “GlyT2 modulators” (Janssen Pharmaceutica N.V., priority 2003, dated 2007).
# Molecular target: T1, human glycine transporter-2 (GlyT2) (Homo sapiens, UniProt Q9Y345)
# T1 construct: The entire coding region of the human GlyT2 cDNA was cloned into the mammalian expression vector pClNeo; expressed in transfected cells; host or cells: Cos-7 cells (African green monkey kidney, ATCC), stably transfected, G418-selected; vector pClNeo
# T1 sequence (Q9Y345 1-797): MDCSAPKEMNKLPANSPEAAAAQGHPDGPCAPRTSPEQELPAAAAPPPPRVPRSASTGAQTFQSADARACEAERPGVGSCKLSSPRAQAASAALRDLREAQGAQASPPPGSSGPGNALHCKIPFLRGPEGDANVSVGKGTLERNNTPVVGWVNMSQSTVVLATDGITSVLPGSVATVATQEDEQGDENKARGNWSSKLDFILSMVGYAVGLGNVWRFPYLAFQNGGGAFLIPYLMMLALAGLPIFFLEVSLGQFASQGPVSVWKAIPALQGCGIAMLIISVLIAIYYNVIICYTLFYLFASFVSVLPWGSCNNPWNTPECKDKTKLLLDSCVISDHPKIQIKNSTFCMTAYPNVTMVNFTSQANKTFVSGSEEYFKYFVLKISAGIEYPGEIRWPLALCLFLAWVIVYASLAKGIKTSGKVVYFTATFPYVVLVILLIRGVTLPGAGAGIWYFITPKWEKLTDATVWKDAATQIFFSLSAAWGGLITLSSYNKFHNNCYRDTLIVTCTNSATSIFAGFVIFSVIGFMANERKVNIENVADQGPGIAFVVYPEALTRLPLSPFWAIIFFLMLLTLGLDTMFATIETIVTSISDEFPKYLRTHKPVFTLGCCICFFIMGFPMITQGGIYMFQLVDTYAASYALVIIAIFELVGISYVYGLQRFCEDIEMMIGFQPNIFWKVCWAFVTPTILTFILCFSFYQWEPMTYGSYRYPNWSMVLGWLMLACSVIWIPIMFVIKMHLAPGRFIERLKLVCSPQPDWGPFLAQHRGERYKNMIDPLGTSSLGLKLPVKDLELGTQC
# Experiment: Inhibition of [14C]-glycine uptake in COS-7 cells transfected with human GlyT2
# Format: cell-based
# Details: Table 1, 20 μM, 2 h at 37° C., Cos-7 cells stably transfected with human GlyT2
# Protocol: GlyT2 antagonist activity of representative compounds of the invention was determined in accordance with the assay described in the Examples and by measuring the ability of compounds to inhibit the uptake of [^14C]-glycine in COS-7 cells transfected with the human glycine transporter-2 (GlyT2). The GlyT2 antagonist activities of these representative compounds are set forth hereinafter in Table 1.
# Cos-7 cells (African green monkey, kidney) from American Type Culture Collection were grown in DMEM supplemented with 10% fetal bovine serum. The entire coding region of the human GlyT2 cDNA was cloned into the mammalian expression vector pClNeo, and then stably transfected into Cos-7 cells. Transfection was performed essentially as described by T. W. Lovenberg et al. (Mol. Pharmacol. 1999, 55:1101–1107): Briefly, cells were grown to 70–80% confluence, removed from the plate with trypsin, and pelleted in a clinical centrifuge. The pellet was resuspended in 400 μL complete medium and transferred to an electroporation cuvette with a 0.4 cm gap between the electrodes (Bio-Rad, 165–2088). One microgram of supercoiled GlyT2 cDNA was added to the cells, and the suspension was mixed. The voltage for the electroporation was set at 0.25 kV, and the capacitance was set at 960 μF. After electroporation, the cuvette contents were diluted to 10 mL with complete medium, and 0.5 mL, 1.0 mL, 2.0 mL and remainder (˜6.5 mL) portions were plated onto four 10-cm dishes. The cells were incubated 24 h before adding 600 μg/mL G418. Colonies that survived selection were isolated and tested for GlyT2 expression.
# The day before the assay, the GlyT2 expressing cells were plated into 96-well scintillating microplates (Amersham, RPNQ 0160) at a density of approximately 20,000 cells per well. Cells were grown overnight at 37° C. in 5% CO2 and then washed once with 37° C. HEPES buffered saline (HBS: 150 mM NaCl, 20 mM HEPES, 1 mM CaCl2, 10 mM glucose, 5 mM KCl, 1 mM MgCl2; pH 7.4). Eighty microliters of 37° C. HBS was subsequently added to each well. Test solutions of GlyT2 inhibitors were prepared in HBS from DMSO stock solutions, and 5 μL of test solution was added to each test well. Total transport and non-specific background were determined by adding 5 μL HBS or 5 μL 2 M glycine, respectively, to the appropriate control wells. Plates were then left at rt for 5 min before the addition of 20 μL of 100 μM ^14C-glycine (NEN, NEC 048H) to each well for a final concentration of 20 μM. Plates were incubated for 2 h at 37° C. with 5% CO2. After 2 h the reaction mixtures were removed by aspiration, and the plates were washed once with ice-cold HBS. Plates were sealed with TopSeal (Packard, 6005185) and counted on a Packard TopCount® scintillation counter.
row,Structure (SMILES),IC50 [nM]
1,"N#C/N=C(\Nc1ccc(-c2ccccc2)cc1)N[C@H](CC(=O)NCCN1CCCC1)c1ccccc1 [Example 8, (R)-3-(N′-Biphenyl-4-yl-N″-cyano-guanidino)-3-phenyl-N-(2-pyrrolidin-1-yl-ethyl)-propionamide]",31
2,"N#C/N=C(\Nc1ccc(-c2ccccc2)cc1)N[C@@H](Cc1ccccc1)C(=O)NCCCN1CCCC1 [Example 1, (S)-2-(N′-Biphenyl-4-yl-N″-cyano-guanidino)-3-phenyl-N-(3-pyrrolidin-1-yl-propyl)-propionamide]",11

# More lines, now with the values ahead:
row,IC50 [nM],Structure (SMILES)
1,103,"N#C/N=C(\Nc1ccc(-c2ccccc2)cc1)N[C@H](CC(=O)NCCN1CCCC1)Cc1ccccc1 [Example 53, (S)-3-(N′-Biphenyl-4-yl-N″-cyano-guanidino)-4-phenyl-N-(2-pyrrolidin-1-yl-ethyl)-butyramide]"
2,93,"N#C/N=C(\Nc1ccc(-c2ccccc2)cc1)N[C@H](CCC(=O)NCCN1CCCC1)Cc1ccccc1 [Example 42, (R)-4-(N′-Biphenyl-4-yl-N″-cyano-guanidino)-5-phenyl-pentanoic Acid (2-pyrrolidin-1-yl-ethyl)-amide]"

# Same assay, conditions: Table 2, 20 μM, 2 h at 37° C., Cos-7 cells stably transfected with human GlyT2
row,Structure (SMILES),IC50 [nM]
1,"O=C(Nc1ccc(S(=O)(=O)c2ccc(Cl)cc2)cc1)N[C@@H](Cc1ccccc1)C(=O)NCCN1CCCC1 [Example 85, (S)-2-{3-[4-(4-Chloro-benzenesulfonyl)-phenyl]-ureido}-3-phenyl-N-(2-pyrrolidin-1-yl-ethyl)-propionamide]",269
2,"O=C(Nc1ccc(Oc2ccccc2)cc1)N[C@H](CNCCN1CCCC1)Cc1ccccc1 [Example 157, 1-[(S)-1-Benzyl-2-(2-pyrrolidin-1-yl-ethylamino)-ethyl]-3-(4-phenoxy-phenyl)-urea]",181
3,"O=C(Nc1ccc(-c2ccccc2)cc1)N[C@@H](Cc1cccnc1)C(=O)NCCCN1CCCC1 [Example 142, (S)-2-(3-Biphenyl-4-yl-ureido)-3-pyridin-3-yl-N-(3-pyrrolidin-1-yl-propyl)-propionamide]",685
4,"O=C(/C=C/[C@H](Cc1ccccc1)NC(=O)Nc1ccc(Oc2ccc(F)cc2)cc1)NCCN1CCCC1 [Example 11, (E)-(S)-4-{3-[4-(4-Fluoro-phenoxy)-phenyl]-ureido}-5-phenyl-pent-2-enoic Acid (2-pyrrolidin-1-yl-ethyl)-amide]",39
5,"O=C(Nc1ccc(Oc2ccccc2)cc1)N[C@@H](Cc1cscn1)C(=O)NCCN1CCCC1 [Example 74, (S)-2-[3-(4-Phenoxy-phenyl)-ureido]-N-(2-pyrrolidin-1-yl-ethyl)-3-thiazol-4-yl-propionamide]",1060
6,"CC(C)[C@@H](CC(=O)NCCN(C(C)C)C(C)C)NC(=O)Nc1ccc(-c2ccccc2)cc1 [Example 146, (R)-3-(3-Biphenyl-4-yl-ureido)-4-methyl-pentanoic Acid (2-diisopropylamino-ethyl)-amide]",595
7,"O=C(CNc1ccc(Oc2ccc(Cl)cc2)cc1)N[C@@H](Cc1ccccc1)C(=O)NCCN1CCCC1 [Example 27, (S)-2-{2-[4-(4-Chloro-phenoxy)-phenylamino]-acetylamino}-3-phenyl-N-(2-pyrrolidin-1-yl-ethyl)-propionamide]",58
8,"O=C(Nc1ccc(-c2ccccc2)cc1)NC(C(=O)NCCN1CCCC1)(c1ccccc1)c1ccccc1 [Example 143, 2-(3-Biphenyl-4-yl-ureido)-2,2-diphenyl-N-(2-pyrrolidin-1-yl-ethyl)-acetamide]",8000
9,"O=C(Nc1ccc(-c2ccccc2)cc1)NC1(C(=O)NCCN2CCCC2)Cc2ccccc2C1 [Example 84, 2-(3-Biphenyl-4-yl-ureido)-indan-2-carboxylic Acid (2-pyrrolidin-1-yl-ethyl)-amide]",10000
10,"CC(C)N(CCNC(=O)[C@H](Cc1ccccc1)NC(=O)Nc1ccc(-c2cccs2)cc1)C(C)C [Example 65, (S)-N-(2-Diisopropylamino-ethyl)-3-phenyl-2-[3-(4-thiophen-2-yl-phenyl)-ureido]-propionamide]",405
11,"Cc1ccc([C@@H](CC(=O)NCCN2CCCC2)NC(=O)Nc2ccc(-c3ccccc3)cc2)cc1 [Example 6, (R)-3-(3-Biphenyl-4-yl-ureido)-N-(2-pyrrolidin-1-yl-ethyl)-3-p-tolyl-propionamide]",27
12,"O=C(C[C@H](Cc1ccccc1)NC(=O)CNc1ccc(Oc2ccc(Cl)cc2)cc1)NCCN1CCCC1 [Example 28, (S)-3-{2-[4-(4-Chloro-phenoxy)-phenylamino]-acetylamino}-4-phenyl-N-(2-pyrrolidin-1-yl-ethyl)-butyramide]",95
13,"O=C(Nc1cccc(Oc2ccccc2)c1)N[C@@H](Cc1ccccc1)C(=O)NCCCN1CCCC1 [Example 122, (S)-2-[3-(3-Phenoxy-phenyl)-ureido]-3-phenyl-N-(3-pyrrolidin-1-yl-propyl)-propionamide]",440

# The next lines start with the values.
row,IC50 [nM],Structure (SMILES)
1,57,"CC(C)NCCNC(=O)CC[C@H](Cc1ccccc1)NC(=O)Nc1ccc(-c2ccccc2)cc1 [Example 26, (R)-4-(3-Biphenyl-4-yl-ureido)-5-phenyl-pentanoic Acid (2-isopropylamino-ethyl)-amide]"
2,112,"O=C(/C=C/[C@H](Cc1ccccc1)NC(=O)Nc1ccc(-c2ccccc2)cc1)NCCN1CCCC1 [Example 101, (E)-(S)-4-(3-Biphenyl-4-yl-ureido)-5-phenyl-pent-2-enoic Acid (2-pyrrolidin-1-yl-ethyl)-amide]"
3,52,"CC(C)NCCNC(=O)/C=C/[C@H](Cc1ccccc1)NC(=O)Nc1ccc(-c2ccccc2)cc1 [Example 21, (E)-(S)-4-(3-Biphenyl-4-yl-ureido)-5-phenyl-pent-2-enoic Acid (2-isopropylamino-ethyl)-amide]"
4,398,"NCCNC(=O)[C@H](Cc1ccccc1)NC(=O)Nc1ccc(Oc2ccccc2)cc1 [Example 98, (S)-N-(2-Amino-ethyl)-2-[3-(4-phenoxy-phenyl)-ureido]-3-phenyl-propionamide]"
5,48,"CCN(CC)CCNC(=O)/C=C/[C@H](Cc1ccccc1)NC(=O)Nc1ccc(-c2ccccc2)cc1 [Example 19, (E)-(S)-4-(3-Biphenyl-4-yl-ureido)-5-phenyl-pent-2-enoic Acid (2-diethylamino-ethyl)-amide]"
6,18,"O=C(Nc1ccc(-c2ccccc2)cc1)N[C@H](CCCNCCN1CCCC1)Cc1ccccc1 [Example 2, 1-[(R)-1-Benzyl-4-(2-pyrrolidin-1-yl-ethylamino)-butyl]-3-biphenyl-4-yl-urea]"

# Same assay, conditions: Table 3, 20 μM, 2 h at 37° C., Cos-7 cells stably transfected with human GlyT2
row,IC50 [nM],Structure (SMILES)
1,32,"O=C(NCCN1CCCC1)[C@H](Cc1ccccc1)NC(=S)Nc1ccc(Oc2ccc(Cl)cc2)cc1 [Example 9, (S)-2-{3-[4-(4-Chloro-phenoxy)-phenyl]-thioureido}-3-phenyl-N-(2-pyrrolidin-1-yl-ethyl)-propionamide]"
